Test results from US20210277102A1, “COMPOSITIONS AND METHODS FOR TREATING A TUMOR SUPPRESSOR DEFICIENT CANCER” (BETH ISRAEL DEACONESS MEDICAL CENTER, INC., priority 2016, published 2021).

Tested on: Pten^pc−/−; Pml^pc−/− prostate tumors
Test: In vivo CXCR2 antagonist treatment of Pten^pc−/−; Pml^pc−/− mice (MRI, flow cytometry)
Design: species or system mouse
Conditions: for tumor growth (tumor volume by MRI): Pml^pc−/− mice, 5 mg/kg intraperitoneal daily for 14 days, vs vehicle, 5 mg/kg
Protocol: Mice were allocated at random to experimental groups and studies were performed in an unblended manner. For treatment with the CXCR2 antagonist, SB225002 (Cayman Chemical #13336) was dissolved in DMSO (10 mg/ml) and diluted in vehicle (0.9% NaCl, 0.3% Tween 80) for in vivo administration. Mice (4 months of age) were treated daily for 10 days by intraperitoneal injection (5 mg/kg) and prostate tumor tissue (anterior lobes) was subjected to Flow Cytometry and histological analysis. For MRI analysis, mice (4 months of age) were treated daily for 21 days (Pten^pc-/-; Zbtb7a^pc-/-), for 14 days (Pten^pc-/-; Trp53^pc-/-) or for 14 days (Pten^pc-/-; Pml^pc-/-) by intraperitoneal injection (5 mg/kg). For depletion of Gr-1+/CD11b+ cells, Ly6G-depletion antibody (1A8, BioXcell) and control Rat IgG2a antibody (BioXcell) were diluted in phosphate-buffered saline (PBS) for in vivo administration. Mice (4 months of age) were treated every other day for 10 days by intraperitoneal injection (200-300 μg/mouse). InVivoMAb anti-mouse Ly6G/Ly6C (Gr-1) antibody, clone RB6-8C5 (BE0075, BioXcell), and control Rat IgG2b antibody (BE0090, BioXcell) were diluted in PBS and Pten^pc-/-; Trp53^pc-/- mice were treated every other day for 14 days by intraperitoneal injection (200 μg/mouse). For neutralization of CXCL5, anti-Mouse CXCL5 antibody (Leinco Technologies) and control Rat IgG2a antibody (BioXcell) were diluted in PBS and injected every other day for 21 days by intraperitoneal injection (20 μg/mouse). Tumor volume quantification was performed by using VivoQuant and Image J software. All mouse prostate MRI imaging analysis was performed at Small Animal Imaging Core at BIDMC and acquired on an […] Model M2 1T tabletop scanner. For Flow Cytometry, spleen and lymph node single cell suspensions were prepared by mashing the tissue in 2% FBS/PBS. […] All staining mixtures were analyzed on a BD LSR II flow cytometer (Becton Dickinson). Resulting profiles were further processed and analyzed using the FlowJo 8.7 software.

Structure (SMILES): O=C(Nc1ccc([N+](=O)[O-])cc1O)Nc1ccccc1Br [SB225002]
- tumor growth (tumor volume by MRI): did not show any significant response
- tumor growth (tumor volume by MRI) (listed as CXCR2i): did not respond
- intra-tumoral Gr-1+/CD11b+ cells (flow cytometry) (Pml^pc−/− prostate tumors after treatment): decrease of Gr-1+/CD11b+ cells
